Measured values as given in patent US10428101B2, “Preparation of glycosphingosines” (The Regents of the University of California, priority 2013, dated 2019).
Marks after values point to notes of the source that are not given here.

Columns and labels:
[1] = target: Pasteurella multocida α2-3-sialyltransferase 1 E271F/R313Y mutant (PmST1 E271F/R313Y) (Pasteurella multocida, UniProt Q15KI8, E271F/R313Y); conditions: for Conversion (%): acceptor lactoside to Neu5Acα2-3 product, OPME sialylation pH 8.5, assayed at 4 h, TLC and ImageQuant 5.2
Chain of Pasteurella multocida α2-3-sialyltransferase 1 E271F/R313Y mutant (PmST1 E271F/R313Y) (Q15KI8 26-412 E271F/R313Y): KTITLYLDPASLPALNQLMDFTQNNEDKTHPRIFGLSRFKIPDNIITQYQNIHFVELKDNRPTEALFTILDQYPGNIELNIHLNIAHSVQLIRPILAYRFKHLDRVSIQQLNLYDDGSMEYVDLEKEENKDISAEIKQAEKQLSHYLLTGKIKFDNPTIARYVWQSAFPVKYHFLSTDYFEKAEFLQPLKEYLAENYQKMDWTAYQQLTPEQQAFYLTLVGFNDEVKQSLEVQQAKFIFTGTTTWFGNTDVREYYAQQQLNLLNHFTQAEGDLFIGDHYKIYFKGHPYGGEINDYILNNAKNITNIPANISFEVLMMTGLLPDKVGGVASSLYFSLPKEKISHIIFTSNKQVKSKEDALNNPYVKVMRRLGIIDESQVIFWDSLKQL
From the text: To test the suitability of lactoside 1 as an acceptor sugar, a one-pot two-enzyme system containing PmST1 E271F/R313Y and Neisseria meningitidis CMP-sialic acid synthetase (NmCSS) (Scheme 2) was used.
To increase the solubility of the fluorous-tagged lactosides and to examine how the length of the fluorous tags affects the efficiency of the enzymatic reactions, fluorous-tagged lactosides (2-4) (Scheme 1) containing a propylamide linker and different lengths of fluoroalkyl chains were synthesized and used as the acceptor sugars in a one-pot two-enzyme system containing NmCSS and PmST1 E271F/R313Y (Scheme 3).
The reactions were monitored by TLC (EtOAc:MeOH:H2O:AcOH=5:2:1:0.1).

[2] = target: Photobacterium damselae α2-6-sialyltransferse (Pd2,6ST) (Photobacterium damselae, UniProt O66375); assay: One-pot two-enzyme α2-6-sialylation of fluorous-tagged lactoside acceptors (NmCSS + Pd2,6ST), conversion by TLC/ImageQuant; assay type: biochemical; conditions: acceptor lactoside to Neu5Acα2-6 product; OPME sialylation pH 8.5; assayed at 4 h; TLC and ImageQuant 5.2
Chain of Photobacterium damselae α2-6-sialyltransferse (Pd2,6ST) (O66375 entry or part of it): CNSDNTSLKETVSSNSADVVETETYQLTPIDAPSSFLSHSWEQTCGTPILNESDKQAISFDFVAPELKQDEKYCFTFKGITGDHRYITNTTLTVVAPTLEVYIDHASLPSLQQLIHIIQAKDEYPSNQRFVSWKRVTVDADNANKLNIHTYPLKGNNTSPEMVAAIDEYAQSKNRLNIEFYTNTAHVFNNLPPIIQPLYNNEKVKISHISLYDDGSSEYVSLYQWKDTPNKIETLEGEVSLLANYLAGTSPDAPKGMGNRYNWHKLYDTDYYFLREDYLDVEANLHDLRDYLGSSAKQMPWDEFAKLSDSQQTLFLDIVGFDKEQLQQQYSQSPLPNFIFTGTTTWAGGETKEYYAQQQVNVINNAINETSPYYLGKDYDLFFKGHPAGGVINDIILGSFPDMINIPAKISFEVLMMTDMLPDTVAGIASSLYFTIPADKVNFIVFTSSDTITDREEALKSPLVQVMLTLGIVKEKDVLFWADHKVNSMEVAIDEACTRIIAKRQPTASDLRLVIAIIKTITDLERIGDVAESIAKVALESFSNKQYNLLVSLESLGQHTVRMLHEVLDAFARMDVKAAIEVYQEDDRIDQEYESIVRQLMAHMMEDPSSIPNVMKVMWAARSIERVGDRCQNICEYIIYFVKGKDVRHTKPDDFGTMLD
Description: B: One-pot two-enzyme sialylation reaction with Pd2,6ST.
Reaction conversion rates were determined by staining the TLC plates with p-anisaldehyde sugar stain and then using ImageQuant 5.2 software to compare the relative intensities between the glycosylation product spot and the lactoside acceptor spot of each reaction (FIG. 1). For external standard comparison, each lactoside acceptor spot was also compared with its corresponding standard 10 mM stock solution spot to verify the conversion rates of each reaction.
Pd2,6ST (0.72 μg) was added to a 0.5 mL centrifuge tube containing 0.01μmol (1 eq.) of a lactoside acceptor (chosen from 1-8), Neu5Ac (1.2 eq.), CTP (2 eq.), Tris-HCl buffer (100 mM, pH 8.5), MgCl2 (20 mM), NmCSS (0.08 μg), and water (total volume=10 μL). The reactions were monitored by TLC (EtOAc:MeOH:H2O:AcOH=5:2:1:0.1).

[3] = Water solubility of fluorous-tagged lactoside; assay type: physicochemical; conditions: qualitative statement

Substance	Conversion (%) [1]	Conversion (%) [2]	sialylated product detected (trace amount) ([1]; one-pot two-enzyme system PmST1 E271F/R313Y and NmCSS, by TLC and MALDI-TOF) [%]	water solubility [3]
LacβProNH—C6F13 [Compound 3]	92 ± 5.5^[b] %	94 ± 6.0^[b] %	–	–
LacβC8F17 [Compound 1]	–	–	< 10	low
LacβProNH-TEG-C6F13 [Compound 7]	70 ± 4.8^[b] %	65 ± 7.9^[b] %	–	–
LacβProNH-HEG-C6F13 [Compound 8]	80 ± 15^[b] %	66 ± 25^[b] %	–	–
LacβProNH—C3F7 [Compound 4]	89 ± 9.8^[b] %	qt.^[b]	–	–
LacβProNH-C8F17 [Compound 2]	22 ± 12^[b] %	31 ± 18^[b] %	–	–
LacβProNH-HEG-C8F17 [Compound 6]	55 ± 7.8^[b] %	52 ± 5.6^[b] %	–	–
LacβProNH-TEG-C8F17 [Compound 5]	65 ± 11^[b] %	47 ± 10^[b] %	–	–
